Reference: the NIST ThermoML archive (doi:10.1016/j.jct.2010.10.018)
Numbers after ± are expanded uncertainties.

Test: xn = mol fraction of the nth substance listed
Details: 101 kPa, Liquid, Vibrating tube method

CC(C)(C)O [2-methylpropan-2-ol] + O
Details | mass density [kg/m3]
274.15 K, x1 = 0.00089 | 999.21 ± 0.11
274.15 K, x1 = 0.00146 | 998.81 ± 0.11
274.15 K, x1 = 0.00269 | 997.91 ± 0.11
274.15 K, x1 = 0.00403 | 997.02 ± 0.11
274.15 K, x1 = 0.00513 | 996.3 ± 0.11
274.15 K, x1 = 0.00761 | 994.82 ± 0.11
274.15 K, x1 = 0.01051 | 993.19 ± 0.11
274.15 K, x1 = 0.01405 | 991.42 ± 0.11
274.15 K, x1 = 0.01793 | 989.78 ± 0.11
274.15 K, x1 = 0.02241 | 988.11 ± 0.11
274.15 K, x1 = 0.03005 | 985.71 ± 0.11
274.15 K, x1 = 0.04242 | 982.79 ± 0.11
274.15 K, x1 = 0.08929 | 966.2 ± 0.12
275.15 K, x1 = 0.00089 | 999.25 ± 0.11
275.15 K, x1 = 0.00146 | 998.85 ± 0.11
275.15 K, x1 = 0.00269 | 997.96 ± 0.11
275.15 K, x1 = 0.00403 | 997.06 ± 0.11
275.15 K, x1 = 0.00513 | 996.34 ± 0.11
275.15 K, x1 = 0.00761 | 994.84 ± 0.11
275.15 K, x1 = 0.01051 | 993.21 ± 0.11
275.15 K, x1 = 0.01405 | 991.44 ± 0.11
275.15 K, x1 = 0.01793 | 989.78 ± 0.11
275.15 K, x1 = 0.02241 | 988.08 ± 0.11
275.15 K, x1 = 0.03005 | 985.63 ± 0.11
275.15 K, x1 = 0.04242 | 982.59 ± 0.11
275.15 K, x1 = 0.08929 | 965.24 ± 0.12
276.15 K, x1 = 0.00089 | 999.28 ± 0.11
276.15 K, x1 = 0.00146 | 998.89 ± 0.11
276.15 K, x1 = 0.00269 | 997.99 ± 0.11
276.15 K, x1 = 0.00403 | 997.09 ± 0.11
276.15 K, x1 = 0.00513 | 996.36 ± 0.11
276.15 K, x1 = 0.00761 | 994.86 ± 0.11
276.15 K, x1 = 0.01051 | 993.23 ± 0.11
276.15 K, x1 = 0.01405 | 991.43 ± 0.11
276.15 K, x1 = 0.01793 | 989.76 ± 0.11
276.15 K, x1 = 0.02241 | 988.02 ± 0.11
276.15 K, x1 = 0.03005 | 985.53 ± 0.11
276.15 K, x1 = 0.04242 | 982.37 ± 0.11
276.15 K, x1 = 0.08929 | 964.42 ± 0.12
277.15 K, x1 = 0.00089 | 999.29 ± 0.12
277.15 K, x1 = 0.00146 | 998.9 ± 0.12
277.15 K, x1 = 0.00269 | 998.01 ± 0.11
277.15 K, x1 = 0.00403 | 997.1 ± 0.11
277.15 K, x1 = 0.00513 | 996.37 ± 0.11
277.15 K, x1 = 0.00761 | 994.85 ± 0.11
277.15 K, x1 = 0.01405 | 991.42 ± 0.11
278.15 K, x1 = 0.00089 | 999.28 ± 0.11
278.15 K, x1 = 0.00146 | 998.89 ± 0.11
278.15 K, x1 = 0.00269 | 998.01 ± 0.11
278.15 K, x1 = 0.00403 | 997.1 ± 0.11
278.15 K, x1 = 0.00513 | 996.37 ± 0.11
278.15 K, x1 = 0.00761 | 994.85 ± 0.11
278.15 K, x1 = 0.01051 | 993.21 ± 0.11
278.15 K, x1 = 0.01405 | 991.41 ± 0.11
278.15 K, x1 = 0.01793 | 989.68 ± 0.11
278.15 K, x1 = 0.02241 | 987.87 ± 0.11
278.15 K, x1 = 0.0248 | 986.88 ± 0.11
278.15 K, x1 = 0.03005 | 985.29 ± 0.11
278.15 K, x1 = 0.03494 | 983.86 ± 0.11
278.15 K, x1 = 0.04241 | 981.87 ± 0.11
278.15 K, x1 = 0.04242 | 981.89 ± 0.11
278.15 K, x1 = 0.05218 | 979.23 ± 0.11
278.15 K, x1 = 0.05887 | 977 ± 0.11
278.15 K, x1 = 0.06973 | 972.66 ± 0.11
278.15 K, x1 = 0.08929 | 962.87 ± 0.12
278.15 K, x1 = 0.1125 | 951.21 ± 0.12
278.15 K, x1 = 0.1566 | 929.91 ± 0.13
278.15 K, x1 = 0.208 | 910.57 ± 0.13
278.15 K, x1 = 0.2408 | 899.29 ± 0.13
278.15 K, x1 = 0.3023 | 882.17 ± 0.13
278.15 K, x1 = 0.3451 | 872.16 ± 0.14
278.15 K, x1 = 0.4045 | 860.22 ± 0.14
278.15 K, x1 = 0.4225 | 857.05 ± 0.14
278.15 K, x1 = 0.4653 | 849.9 ± 0.14
278.15 K, x1 = 0.5344 | 839.61 ± 0.15
278.15 K, x1 = 0.6029 | 831.08 ± 0.15
278.15 K, x1 = 0.6909 | 821.72 ± 0.15
278.15 K, x1 = 0.726 | 818.36 ± 0.16
278.15 K, x1 = 0.7999 | 812.56 ± 0.16
279.15 K, x1 = 0.00089 | 999.26 ± 0.11
279.15 K, x1 = 0.00146 | 998.87 ± 0.11
279.15 K, x1 = 0.00269 | 997.99 ± 0.11
279.15 K, x1 = 0.00403 | 997.08 ± 0.11
279.15 K, x1 = 0.00513 | 996.35 ± 0.11
279.15 K, x1 = 0.00761 | 994.79 ± 0.11
279.15 K, x1 = 0.01405 | 991.37 ± 0.11
280.15 K, x1 = 0.00089 | 999.22 ± 0.11
280.15 K, x1 = 0.00146 | 998.83 ± 0.11
280.15 K, x1 = 0.00269 | 997.95 ± 0.11
280.15 K, x1 = 0.00403 | 997.04 ± 0.11
280.15 K, x1 = 0.00513 | 996.31 ± 0.11
280.15 K, x1 = 0.00761 | 994.76 ± 0.11
280.15 K, x1 = 0.01051 | 993.13 ± 0.11
280.15 K, x1 = 0.01405 | 991.32 ± 0.11
280.15 K, x1 = 0.01793 | 989.57 ± 0.11
280.15 K, x1 = 0.02241 | 987.69 ± 0.11
280.15 K, x1 = 0.03005 | 985 ± 0.11
280.15 K, x1 = 0.04242 | 981.35 ± 0.11
280.15 K, x1 = 0.08929 | 961.26 ± 0.12
281.15 K, x1 = 0.00089 | 999.17 ± 0.11
281.15 K, x1 = 0.00146 | 998.78 ± 0.11
281.15 K, x1 = 0.00269 | 997.9 ± 0.11
281.15 K, x1 = 0.00403 | 996.99 ± 0.11
281.15 K, x1 = 0.00513 | 996.26 ± 0.11
281.15 K, x1 = 0.00761 | 994.7 ± 0.11
281.15 K, x1 = 0.01405 | 991.25 ± 0.11
282.15 K, x1 = 0.00089 | 999.1 ± 0.11
282.15 K, x1 = 0.00146 | 998.72 ± 0.11
282.15 K, x1 = 0.00269 | 997.84 ± 0.11
282.15 K, x1 = 0.00403 | 996.93 ± 0.11
282.15 K, x1 = 0.00513 | 996.19 ± 0.11
282.15 K, x1 = 0.00761 | 994.63 ± 0.11
282.15 K, x1 = 0.01405 | 991.16 ± 0.11
283.15 K, x1 = 0.00089 | 999.02 ± 0.11
283.15 K, x1 = 0.00146 | 998.63 ± 0.11
283.15 K, x1 = 0.00269 | 997.76 ± 0.11
283.15 K, x1 = 0.00403 | 996.85 ± 0.11
283.15 K, x1 = 0.00513 | 996.12 ± 0.11
283.15 K, x1 = 0.00761 | 994.57 ± 0.11
283.15 K, x1 = 0.01405 | 991.06 ± 0.11
288.15 K, x1 = 0.00089 | 998.43 ± 0.11
288.15 K, x1 = 0.00146 | 998.04 ± 0.11
288.15 K, x1 = 0.00269 | 997.17 ± 0.11
288.15 K, x1 = 0.00403 | 996.26 ± 0.11
288.15 K, x1 = 0.00513 | 995.52 ± 0.11
288.15 K, x1 = 0.00761 | 993.96 ± 0.11
288.15 K, x1 = 0.01405 | 990.35 ± 0.11
288.15 K, x1 = 0.0248 | 985.26 ± 0.11
288.15 K, x1 = 0.03494 | 981.48 ± 0.11
288.15 K, x1 = 0.04241 | 978.77 ± 0.11
288.15 K, x1 = 0.05218 | 974.85 ± 0.11
288.15 K, x1 = 0.05887 | 971.81 ± 0.11
288.15 K, x1 = 0.06973 | 966.34 ± 0.12
288.15 K, x1 = 0.1125 | 943.7 ± 0.12
288.15 K, x1 = 0.1566 | 922.09 ± 0.12
288.15 K, x1 = 0.208 | 902.66 ± 0.13
288.15 K, x1 = 0.2408 | 891.25 ± 0.13
288.15 K, x1 = 0.3023 | 874 ± 0.14
288.15 K, x1 = 0.3451 | 863.89 ± 0.14
288.15 K, x1 = 0.4045 | 851.78 ± 0.14
288.15 K, x1 = 0.4225 | 848.63 ± 0.14
288.15 K, x1 = 0.4653 | 841.48 ± 0.14
288.15 K, x1 = 0.5344 | 830.98 ± 0.15
288.15 K, x1 = 0.6029 | 822.27 ± 0.15
288.15 K, x1 = 0.6909 | 812.77 ± 0.16
288.15 K, x1 = 0.726 | 809.38 ± 0.16
288.15 K, x1 = 0.7999 | 803.46 ± 0.16
288.15 K, x1 = 0.8711 | 797.8 ± 0.17
288.15 K, x1 = 0.9183 | 794.66 ± 0.17
298.15 K, x1 = 0.00089 | 996.39 ± 0.11
298.15 K, x1 = 0.00146 | 996 ± 0.11
298.15 K, x1 = 0.00269 | 995.11 ± 0.11
298.15 K, x1 = 0.00403 | 994.19 ± 0.11
298.15 K, x1 = 0.00513 | 993.44 ± 0.11
298.15 K, x1 = 0.00761 | 991.84 ± 0.11
298.15 K, x1 = 0.01405 | 988.08 ± 0.11
298.15 K, x1 = 0.0248 | 982.45 ± 0.11
298.15 K, x1 = 0.03494 | 977.97 ± 0.11
298.15 K, x1 = 0.04241 | 974.54 ± 0.11
298.15 K, x1 = 0.05218 | 969.58 ± 0.11
298.15 K, x1 = 0.05887 | 965.94 ± 0.12
298.15 K, x1 = 0.06973 | 959.94 ± 0.12
298.15 K, x1 = 0.1125 | 936.18 ± 0.12
298.15 K, x1 = 0.1566 | 914.18 ± 0.13
298.15 K, x1 = 0.208 | 894.55 ± 0.13
298.15 K, x1 = 0.2408 | 883.06 ± 0.13
298.15 K, x1 = 0.3023 | 865.6 ± 0.14
298.15 K, x1 = 0.3451 | 855.48 ± 0.14
298.15 K, x1 = 0.4045 | 843.11 ± 0.14
298.15 K, x1 = 0.4225 | 839.94 ± 0.15
298.15 K, x1 = 0.4653 | 832.83 ± 0.15
298.15 K, x1 = 0.5344 | 822.05 ± 0.15
